Measured values as given in paper PMC10892419, “UHPLC-MS/MS Assay for Quantification of Legubicin, a Novel Doxorubicin-Based Legumain-Activated Prodrug, and Its Application to Pharmacokinetic and Tissue Distribution Studies” (Molecules, 2024).

Tests used:
legumain = molecular target: T1, legumain (Homo sapiens, UniProt Q99538); assay: Stability of Leu-DOX in the legumain enzymatic system; assay type: in vitro ADME; conditions: plasma samples spiked with Leu-DOX, enzymatic digestion procedure (24 h, 37 °C), n = 3
T1 sequence (Q99538 18-433): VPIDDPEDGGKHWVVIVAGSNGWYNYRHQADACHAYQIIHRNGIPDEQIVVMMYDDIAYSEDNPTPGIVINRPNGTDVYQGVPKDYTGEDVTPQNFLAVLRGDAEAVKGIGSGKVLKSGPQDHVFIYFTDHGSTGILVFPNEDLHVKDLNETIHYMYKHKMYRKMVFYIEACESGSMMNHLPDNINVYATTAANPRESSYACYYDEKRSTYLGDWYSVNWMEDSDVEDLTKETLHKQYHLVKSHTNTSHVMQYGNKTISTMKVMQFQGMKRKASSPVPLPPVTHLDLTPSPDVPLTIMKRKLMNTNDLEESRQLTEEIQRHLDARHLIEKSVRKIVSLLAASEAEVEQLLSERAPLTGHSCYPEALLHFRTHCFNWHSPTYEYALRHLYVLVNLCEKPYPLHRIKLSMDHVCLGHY
Protocol: The specific liquid-phase conditions are shown as follows. Column: Agilent Eclipse Plus 4.6 × 250 mm, 5 µm; mobile phase A: 0.1% trifluoroacetic acid in water; mobile phase B: acetonitrile. Flow rate: 1.0 mL/min; HPLC: Waters 2695; detector: Waters 2475 detector (ex470/em600); column temperature: 30 °C; injection volume: 10 µL; run time: 30 min; needle wash solvent: 50% acetonitrile in water; gradient elution: starting 20% B, increasing from 20% to 45% B in 15 min, increasing from 45% to 80% B in 15 to 20 min, maintained for 5 min, then decreasing to 20% B in 0.1 min, and continuing until the end of 30 min. (b) Kinetics of Leu-Dox release from legubicin (black) and legubicin–albumin conjugate (blue) in the presence of legumain (n = 4). (c) Stability of Leu-Dox in this enzymatic system (n = 3).
The assessment of Leu-DOX stability in the aforementioned enzymatic systems warrants careful consideration. Consequently, plasma samples containing Leu-DOX were intentionally supplemented to assess the potential impacts of these methods on the precise determination of the enzymatic digestion of the legubicin plasma protein complex, which is utilized for determining the total Leu-DOX post-digestion. […]

[1] = Storage stability of analytes in mouse plasma (method validation); conditions: for Freeze and thaw stability at -80 °C/ room temperature, Bias / Freeze and thaw stability at -80 °C/ room temperature, Measured concentration / Long term stability at -80 °C (30 days), Bias / Short term stability at room temperature (6 h), Bias / Long term stability at -80 °C (30 days), Measured concentration / Short term stability at room temperature (6 h), Measured concentration: mouse plasma; for Freeze and thaw stability at -80 °C/ room temperature, Bias / Freeze and thaw stability at -80 °C/ room temperature, Measured concentration: 1 cycle; for Freeze and thaw stability at -80 °C/ room temperature, Bias / Long term stability at -80 °C (30 days), Bias / Short term stability at room temperature (6 h), Bias / Auto-sampler stability at 2-8 °C, Bias: n = 6; for Freeze and thaw stability at -80 °C/ room temperature, Measured concentration / Long term stability at -80 °C (30 days), Measured concentration / Short term stability at room temperature (6 h), Measured concentration / Auto-sampler stability at 2-8 °C, Measured concentration: n = 6, mean ± SD; for Auto-sampler stability at 2-8 °C, Bias / Auto-sampler stability at 2-8 °C, Measured concentration: processed mouse plasma, 12 h
Protocol: By investigating low- and high-concentration stability QCs in six replicates at different storage conditions, autosampler, short-term (bench-top), freeze and thaw, and long-term stability evaluations were conducted.

[2] = in vivo; cited from earlier work
[3] = high QC (Leu-DOX 2400, DOX 800 pmol/mL)
[4] = high QC (nominal Leu-DOX 2400, DOX 800 pmol/mL)
[5] = low QC (Leu-DOX 9, DOX 3 pmol/mL)
[6] = low QC (nominal Leu-DOX 9, DOX 3 pmol/mL)
[7] = high QC (Leu-DOX 2400, DOX 800 pmol/mL, conjugate 80 nmol/mL)
[8] = low QC (Leu-DOX 9, DOX 3 pmol/mL, conjugate 0.2 nmol/mL)

| Compound | stability in the legumain enzymatic digestion system (legumain) | Freeze and thaw stability at -80 °C/ room temperature, Bias [1, 3] | Freeze and thaw stability at -80 °C/ room temperature, Measured concentration [1, 4] | Freeze and thaw stability at -80 °C/ room temperature, Bias [1, 5] | Freeze and thaw stability at -80 °C/ room temperature, Measured concentration [1, 6] | Long term stability at -80 °C (30 days), Bias [1, 7] | Short term stability at room temperature (6 h), Bias [1, 7] | Long term stability at -80 °C (30 days), Measured concentration [1, 4] | Short term stability at room temperature (6 h), Measured concentration [1, 4] | Long term stability at -80 °C (30 days), Bias [1, 8] | Short term stability at room temperature (6 h), Bias [1, 8] | Long term stability at -80 °C (30 days), Measured concentration [1, 6] | Short term stability at room temperature (6 h), Measured concentration [1, 6] | Auto-sampler stability at 2-8 °C, Bias [1, 3] | Auto-sampler stability at 2-8 °C, Measured concentration [1, 4] | Auto-sampler stability at 2-8 °C, Bias [1, 5] | Auto-sampler stability at 2-8 °C, Measured concentration [1, 6] | Vz [2] | clearance (CL) [2] |
| --- | --- | --- | --- | --- | --- | --- | --- | --- | --- | --- | --- | --- | --- | --- | --- | --- | --- | --- | --- |
| COc1cccc2c1C(=O)c1c(O)c3c(c(O)c1C2=O)C[C@@](O)(C(=O)CO)C[C@@H]3O[C@H]1C[C@H](NC(=O)[C@@H](N)CC(C)C)[C@H](O)[C@H](C)O1 [Leu-DOX, N-L-leucyl-doxorubicin] | remained unaltered throughout the enzymatic digestion procedure | -1.8% | 2356.67 ± 81.65 pmol/mL | -1.4% | 8.87 ± 0.24 pmol/mL | 9.9% | -5.3% | 2636.67 ± 103.47 pmol/mL | 2275.00 ± 81.67 pmol/mL | 0.9% | -3.2% | 9.08 ± 0.43 pmol/mL | 8.71 ± 0.32 pmol/mL | -2.4% | 2341.67 ± 132.43 pmol/mL | -3.1% | 8.72 ± 0.62 pmol/mL |  |  |
| COc1cccc2c1C(=O)c1c(O)c3c(c(O)c1C2=O)C[C@@](O)(C(=O)CO)C[C@@H]3O[C@H]1C[C@H](N)[C@H](O)[C@H](C)O1 [DOX, Doxorubicin] |  | -7.0% | 744.33 ± 11.66 pmol/mL | -8.6% | 2.74 ± 0.07 pmol/mL | 4.8% | -9.3% | 838.33 ± 13.81 pmol/mL | 728.83 ± 15.41 pmol/mL | -1.1% | -9.4% | 2.97 ± 0.23 pmol/mL | 2.72 ± 0.17 pmol/mL | -8.2% | 734.00 ± 10.90 pmol/mL | -7.9% | 2.76 ± 0.16 pmol/mL | 72 L/kg | approximately 2553 mL/h/kg |
